Converted amounts (≈) assume the structure as drawn. The source made the active and inactive calls. The calls are words filed in the database; no cut-off is given here.
Tests used:
Type in all cases: functional, cell-based
[1] = Cytotoxicity against human LOX cells after 2 days by XTT assay; conditions: 48 h
OVCAR-3 [2] = assay: Cytotoxicity against human OVCAR-3 cells after 2 days by XTT assay; conditions: OVCAR-3, 48 h
OVCAR-3 [3] = assay: Cytotoxicity against human OVCAR-3 cells at 50 ug/mL after 2 days by XTT assay
LOX = assay: Cytotoxicity against human LOX cells at 50 ug/mL after 2 days by XTT assay

SMILES: COC1=C(C)C(=O)c2cc(=O)n(C)c(C)c2C1=O [MIMOSAMYCIN]
- IC50 [1]: 10 µg/mL (≈ 40.4 µM)
- IC50 (OVCAR-3 [2]): 10 µg/mL (≈ 40.4 µM)

SMILES: COc1cc2c(CO)nccc2cc1O
- Activity (OVCAR-3 [3]): inactive
- Activity (LOX): inactive

— ChEMBL document CHEMBL1156351, “A new isoquinoline alkaloid from the marine sponge Haliclona species” (J Nat Prod, 2001)
